Measurements from the supplement of paper PMC7287046.

Experiments:
Conditions in all cases: exposure time: 72 h
AM-38 [1] = assay: HSA synergy score (Combenefit); higher = more synergy
How it was run: (§1)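 Each drug's dilution series was topped at its own IC50. Pairs were combined on glioma cell lines as 6 × 6 twofold-dilution matrices in 96-well plates, dosed 24 h after plating, with a sixfold untreated control, and read three days later at least in triplicate. CellTiter-Glo viability, given as percent of DMSO controls, was normalised, and Combenefit then yielded Loewe, Bliss and highest single agent synergy scores.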

KNS-42 [2] = assay: as above
How it was run: as §1

SF268 [3] = assay: as above
How it was run: as §1

SF539 [4] = assay: as above
How it was run: as §1

SNB75 [5] = assay: as above
How it was run: as §1

T98G [6] = assay: as above
How it was run: as §1

U118 [7] = assay: as above
How it was run: as §1

U251 [8] = assay: as above
How it was run: as §1

U87 [9] = assay: as above
How it was run: as §1

AM38 = assay: Chou-Talalay combination index (dimensionless); higher = less synergy (more antagonism)
How it was run: (§2)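 Two drugs were combined in a 6 × 6 grid of twofold dilutions on glioma cells plated 24 h earlier in 96-well plates, with low-adhesion plates for primary cultures. Each dilution series was capped at the drug's single-drug IC50. After three days, CellTiter-Glo readings were taken at least in triplicate. The Chou–Talalay combination index was calculated by the median effect principle from single and combined viabilities, given as percent of DMSO controls.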

KNS42 = assay: as above
How it was run: as §2

SF268 [10] = assay: as above
How it was run: as §2

SF539 [11] = assay: as above
How it was run: as §2

SNB75 [12] = assay: as above
How it was run: as §2

T98 = assay: as above
How it was run: as §2

U118 [13] = assay: as above
How it was run: as §2

U251 [14] = assay: as above
How it was run: as §2

U87 [15] = assay: as above
How it was run: as §2

AM-38 [16] = assay: Bliss synergy score (Combenefit); higher = more synergy; extreme values may be limits of the assay
How it was run: as §1

KNS-42 [17] = assay: as above
How it was run: as §1

SF268 [18] = assay: as above
How it was run: as §1

SF539 [19] = assay: as above
How it was run: as §1

SNB75 [20] = assay: as above
How it was run: as §1

T98G [21] = assay: as above
How it was run: as §1

U118 [22] = assay: as above
How it was run: as §1

U251 [23] = assay: as above
How it was run: as §1

U87 [24] = assay: as above
How it was run: as §1

AM-38 [25] = assay: Loewe synergy score (Combenefit); higher = more synergy; extreme values may be limits of the assay
How it was run: as §1

KNS-42 [26] = assay: as above
How it was run: as §1

SF268 [27] = assay: as above
How it was run: as §1

SF539 [28] = assay: as above
How it was run: as §1

SNB75 [29] = assay: as above
How it was run: as §1

T98G [30] = assay: as above
How it was run: as §1

U118 [31] = assay: as above
How it was run: as §1

U251 [32] = assay: as above
How it was run: as §1

U87 [33] = assay: as above
How it was run: as §1

SMILES | HSA synergy score (AM-38 [1]) | HSA synergy score (KNS-42 [2]) | HSA synergy score (SF268 [3]) | HSA synergy score (SF539 [4]) | HSA synergy score (SNB75 [5]) | HSA synergy score (T98G [6]) | HSA synergy score (U118 [7]) | HSA synergy score (U251 [8]) | HSA synergy score (U87 [9]) | Chou-Talalay combination index (AM38) | Chou-Talalay combination index (KNS42) | Chou-Talalay combination index (SF268 [10]) | Chou-Talalay combination index (SF539 [11]) | Chou-Talalay combination index (SNB75 [12]) | Chou-Talalay combination index (T98) | Chou-Talalay combination index (U118 [13]) | Chou-Talalay combination index (U251 [14]) | Chou-Talalay combination index (U87 [15]) | Bliss synergy score (AM-38 [16]) | Bliss synergy score (KNS-42 [17]) | Bliss synergy score (SF268 [18]) | Bliss synergy score (SF539 [19]) | Bliss synergy score (SNB75 [20]) | Bliss synergy score (T98G [21]) | Bliss synergy score (U118 [22]) | Bliss synergy score (U251 [23]) | Bliss synergy score (U87 [24]) | Loewe synergy score (AM-38 [25]) | Loewe synergy score (KNS-42 [26]) | Loewe synergy score (SF268 [27]) | Loewe synergy score (SF539 [28]) | Loewe synergy score (SNB75 [29]) | Loewe synergy score (T98G [30]) | Loewe synergy score (U118 [31]) | Loewe synergy score (U251 [32]) | Loewe synergy score (U87 [33])
CCC(=O)N1CCN(c2ccc(-n3c(=O)ccc4cnc5ccc(-c6cnc7ccccc7c6)cc5c43)cc2C(F)(F)F)CC1 [Torin1] + CCCCCCCCCCCC1=C(O)C(=O)C=C(O)C1=O [Embelin] | 2.04 | 5.07 | 2.48 | 2.69 | 7.31 | 0 | 2.41 | 6.4 | 3.43 | 0.856 | 0.865 | 0.864 | 0.855 | 0.841 | 0.173 | 0.917 | 0.874 | 0.673 | 0.037 | 0.0808 | 0.248 | 0.761 | 1.77 | 0 | 1.08 | 2.83 | 2.62 | 1.83 | 3.32 | 1.92 | 1.98 | 1.4 | 0 | 1.87 | 5.87 | 0.761
CCC(=O)N1CCN(c2ccc(-n3c(=O)ccc4cnc5ccc(-c6cnc7ccccc7c6)cc5c43)cc2C(F)(F)F)CC1 [Torin1] + N#CC(c1ccnc(NCCc2cccnc2)n1)c1nc2ccccc2s1 [AS601245] | 0 | 1.23 | 3.85 | 11.4 | 0.213 | 0.235 | 2.19 | 2.53 | 0 | 1.32 | 1.02 | 0.963 | 0.864 | 1.11 | 0.962 | 1.07 | 0.948 | 2.44 | 0 | 0 | 0.983 | 4.4 | 0 | 0 | 0 | 0.142 | 0 | 0 | 0 | 0.416 | 2.66 | 0 | 0.121 | 2.14 | 0.0482 | 0
CCC(=O)N1CCN(c2ccc(-n3c(=O)ccc4cnc5ccc(-c6cnc7ccccc7c6)cc5c43)cc2C(F)(F)F)CC1 [Torin1] + O=c1[nH]c2ccccc2n1C1CCN(Cc2ccc(-c3[nH]c4cc5ncnc5cc4nc3-c3ccccc3)cc2)CC1 [Akt inhibitor VIII] | 14.7 | 16.1 | 13.5 | 10.4 | 3.56 | 9.39 | 17.9 | 1.85 | 6.03 | 0.83 | 0.852 | 0.85 | 0.778 | 0.591 | 0.645 | 0.769 | 0.878 | 0.797 | 0.504 | 6.55 | 0.944 | 3.46 | 0.0946 | 4.49 | 5.39 | 1.02 | 5.43 | 7.92 | 11.3 | 5.18 | 9.28 | 0.719 | 2.94 | 9.44 | 0.27 | 0.347
